A short description of one series: pKa of acids. It counts as physicochemical.
The conditions of series [1]: cited from earlier work.
[2] abbreviates: preservative concentration 0.18% in carbomer gel (propylparaben 0.05% listed in next row).
The mark [3] stands for this setting: preservative concentration 0.01% in carbomer gel.
[4] abbreviates: preservative concentration 0.1% in carbomer gel.

Where two headings read alike, the source gives them in different places.

These results are taken from patent US7048951B1, “Systems and methods for topical treatment with nitric oxide” (Nioxx, LLC, priority 1998, dated 2006).

Consider `O=C(O)/C=C\C(=O)O` [Maleic acid], for which, in “pKa of acids”, the “acid strength relative to nitrous acid” value is given as “about 30 times”.

Take `COC(=O)c1ccc(O)cc1` [Methylparaben]: in series [1] (setting [2]), the Appearance result was “Clear” and the Compatible result is recorded as “Yes”.

In the case of `O=C([O-])c1ccccc1.[Na+]` [Sodium Benzoate], in series [1] (setting [3]), the Appearance entry is on record as “Clear” and the Compatible entry is “Yes”. Moreover, in series [1] (setting [4]), the Appearance entry is “Cloudy” and the Compatible result was “No”.

As for `C[CH2][Hg][S]c1ccccc1C(=O)[O-].[Na+]` [Thiomersal], in series [1] (setting [3]), the Appearance entry is recorded as “Clear” and the Compatible entry is on record as “Yes”. For the same compound, in series [1] (setting [4]), the Appearance entry is recorded as “Clear” and the Compatible result is given as “Yes”.

Regarding Benzalkonium Chloride, in series [1] (setting [3]), the Appearance entry is “Clear” and the Compatible entry is reported as “Yes”. In series [1] (setting [4]), the Appearance entry is listed as “Cloudy” and the Compatible result is recorded as “No”.
